Tested on: DMPK
Assay: DMPK knockdown by transfected antisense oligonucleotides in DM1 C15 myotubes at 0.5 nM and 50 nM
Type: cell-based
Details: 72 hours; for Normalized DMPK Remaining: relative to vehicle control = 1.00
Outline: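 Seven-day-differentiated DM1 C15 myotubes transfected (Lipofectamine MessengerMax) with each oligonucleotide at 0.5 nM or 50 nM final, biological triplicates. After 72 h, DMPK mRNA quantified by qPCR, expressed relative to vehicle-only transfection set to 1.00.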

[1] = 0.5 nM oligonucleotide, qPCR, relative to vehicle control
[2] = 50 nM oligonucleotide, qPCR, relative to vehicle control

351 (UGAUGUCCCUGUGCACGUAG; chemistry not given here) [compound 351]
Percent DMPK Reduction [1]: 20.58%
Normalized DMPK Remaining (0.5 nM oligonucleotide, qPCR): 0.79
Percent DMPK Reduction [2]: 59.00%
Normalized DMPK Remaining (50 nM oligonucleotide, qPCR): 0.41

352 (AAAUACCGAGGAAUGUCGGG; chemistry not given here) [compound 352]
Percent DMPK Reduction [1]: 11.25%
Normalized DMPK Remaining (0.5 nM oligonucleotide, qPCR): 0.89
Percent DMPK Reduction [2]: 50.91%
Normalized DMPK Remaining (50 nM oligonucleotide, qPCR): 0.49

353 (GGCGAAUACACCCAGCGCCC; chemistry not given here) [compound 353]
Percent DMPK Reduction [1]: 19.77%
Normalized DMPK Remaining (0.5 nM oligonucleotide, qPCR): 0.80
Percent DMPK Reduction [2]: 68.72%
Normalized DMPK Remaining (50 nM oligonucleotide, qPCR): 0.31

354 (AGACAAUAAAUACCGAGGAA; chemistry not given here) [compound 354]
Percent DMPK Reduction [1]: 29.37%
Normalized DMPK Remaining (0.5 nM oligonucleotide, qPCR): 0.71
Percent DMPK Reduction [2]: 48.20%
Normalized DMPK Remaining (50 nM oligonucleotide, qPCR): 0.52

355 (CCCGUCUGCUUCAUCUUCAC; chemistry not given here) [compound 355]
Percent DMPK Reduction [1]: 20.31%
Normalized DMPK Remaining (0.5 nM oligonucleotide, qPCR): 0.80
Percent DMPK Reduction [2]: 43.97%
Normalized DMPK Remaining (50 nM oligonucleotide, qPCR): 0.56

356 (CUGCCUGCAGCAACUCCAUC; chemistry not given here) [compound 356]
Percent DMPK Reduction [1]: 23.10%
Normalized DMPK Remaining (0.5 nM oligonucleotide, qPCR): 0.77
Percent DMPK Reduction [2]: 46.69%
Normalized DMPK Remaining (50 nM oligonucleotide, qPCR): 0.53

357 (CCUCAGCCUCUGCCGCAGGG; chemistry not given here) [compound 357]
Percent DMPK Reduction [1]: 10.87%
Normalized DMPK Remaining (0.5 nM oligonucleotide, qPCR): 0.89
Percent DMPK Reduction [2]: 55.22%
Normalized DMPK Remaining (50 nM oligonucleotide, qPCR): 0.45

358 (GUGUCCGGAAGUCGCCUGCU; chemistry not given here) [compound 358]
Percent DMPK Reduction [1]: 22.99%
Normalized DMPK Remaining (0.5 nM oligonucleotide, qPCR): 0.77
Percent DMPK Reduction [2]: 73.65%
Normalized DMPK Remaining (50 nM oligonucleotide, qPCR): 0.26

359 (UGCACGUGUGGCUCAAGCAG; chemistry not given here) [compound 359]
Percent DMPK Reduction [1]: 10.81%
Normalized DMPK Remaining (0.5 nM oligonucleotide, qPCR): 0.89
Percent DMPK Reduction [2]: 64.18%
Normalized DMPK Remaining (50 nM oligonucleotide, qPCR): 0.36

360 (GACAAUAAAUACCGAGGAAU; chemistry not given here) [compound 360]
Percent DMPK Reduction [1]: 28.97%
Normalized DMPK Remaining (0.5 nM oligonucleotide, qPCR): 0.71
Percent DMPK Reduction [2]: 47.51%
Normalized DMPK Remaining (50 nM oligonucleotide, qPCR): 0.52

361 (GCCAUGACAAUCUCCGCCAG; chemistry not given here) [compound 361]
Percent DMPK Reduction [1]: 30.96%
Normalized DMPK Remaining (0.5 nM oligonucleotide, qPCR): 0.69
Percent DMPK Reduction [2]: 81.00%
Normalized DMPK Remaining (50 nM oligonucleotide, qPCR): 0.19

363 (CAUGACCAGGUACAGGUAGU; chemistry not given here) [compound 363]
Percent DMPK Reduction [1]: 19.39%
Normalized DMPK Remaining (0.5 nM oligonucleotide, qPCR): 0.81
Percent DMPK Reduction [2]: 59.09%
Normalized DMPK Remaining (50 nM oligonucleotide, qPCR): 0.41

364 (AGCGCCCACCAGUCACACUC; chemistry not given here) [compound 364]
Percent DMPK Reduction [1]: 30.36%
Normalized DMPK Remaining (0.5 nM oligonucleotide, qPCR): 0.70
Percent DMPK Reduction [2]: 63.67%
Normalized DMPK Remaining (50 nM oligonucleotide, qPCR): 0.36

365 (UCUCAGUGCAUCCAAAACGU; chemistry not given here) [compound 365]
Percent DMPK Reduction [1]: 10.88%
Normalized DMPK Remaining (0.5 nM oligonucleotide, qPCR): 0.89
Percent DMPK Reduction [2]: 51.34%
Normalized DMPK Remaining (50 nM oligonucleotide, qPCR): 0.49

366 (UUUGGGCAGAUGGAGGGCCU; chemistry not given here) [compound 366]
Percent DMPK Reduction [1]: 35.14%
Normalized DMPK Remaining (0.5 nM oligonucleotide, qPCR): 0.65
Percent DMPK Reduction [2]: 70.00%
Normalized DMPK Remaining (50 nM oligonucleotide, qPCR): 0.30

367 (GAUGUCCCUGUGCACGUAGC; chemistry not given here) [compound 367]
Percent DMPK Reduction [1]: 18.99%
Normalized DMPK Remaining (0.5 nM oligonucleotide, qPCR): 0.81
Percent DMPK Reduction [2]: 62.46%
Normalized DMPK Remaining (50 nM oligonucleotide, qPCR): 0.38

368 (CAGCAGUGUCAGCAGGUCCC; chemistry not given here) [compound 368]
Percent DMPK Reduction [1]: 25.67%
Normalized DMPK Remaining (0.5 nM oligonucleotide, qPCR): 0.74
Percent DMPK Reduction [2]: 51.97%
Normalized DMPK Remaining (50 nM oligonucleotide, qPCR): 0.48

369 (CAUGACAAUCUCCGCCAGGU; chemistry not given here) [compound 369]
Percent DMPK Reduction [1]: 29.45%
Normalized DMPK Remaining (0.5 nM oligonucleotide, qPCR): 0.71
Percent DMPK Reduction [2]: 70.52%
Normalized DMPK Remaining (50 nM oligonucleotide, qPCR): 0.29

370 (ACUUGUUCAUGAUCUUCAUG; chemistry not given here) [compound 370]
Percent DMPK Reduction [1]: 25.47%
Normalized DMPK Remaining (0.5 nM oligonucleotide, qPCR): 0.75
Percent DMPK Reduction [2]: 52.89%
Normalized DMPK Remaining (50 nM oligonucleotide, qPCR): 0.47

371 (GUGGAAUCCGCGUAGAAGGG; chemistry not given here) [compound 371]
Percent DMPK Reduction [1]: 30.55%
Normalized DMPK Remaining (0.5 nM oligonucleotide, qPCR): 0.69
Percent DMPK Reduction [2]: 49.34%
Normalized DMPK Remaining (50 nM oligonucleotide, qPCR): 0.51

372 (UGGCCAUGACAAUCUCCGCC; chemistry not given here) [compound 372]
Percent DMPK Reduction [1]: 30.46%
Normalized DMPK Remaining (0.5 nM oligonucleotide, qPCR): 0.70
Percent DMPK Reduction [2]: 72.55%
Normalized DMPK Remaining (50 nM oligonucleotide, qPCR): 0.27

373 (GGGACAGACAAUAAAUACCG; chemistry not given here) [compound 373]
Percent DMPK Reduction [1]: 27.19%
Normalized DMPK Remaining (0.5 nM oligonucleotide, qPCR): 0.73
Percent DMPK Reduction [2]: 50.50%
Normalized DMPK Remaining (50 nM oligonucleotide, qPCR): 0.49

374 (CCGCUCCCCAAACUUGCUCA; chemistry not given here) [compound 374]
Percent DMPK Reduction [1]: 0.28%
Normalized DMPK Remaining (0.5 nM oligonucleotide, qPCR): 1.00
Percent DMPK Reduction [2]: 56.82%
Normalized DMPK Remaining (50 nM oligonucleotide, qPCR): 0.43

375 (CGGCUCAGGCUCUGCCGGGU; chemistry not given here) [compound 375]
Percent DMPK Reduction [1]: 17.97%
Normalized DMPK Remaining (0.5 nM oligonucleotide, qPCR): 0.82
Percent DMPK Reduction [2]: 69.03%
Normalized DMPK Remaining (50 nM oligonucleotide, qPCR): 0.31

376 (GGCUCCUGGGCGGCGCCAGA; chemistry not given here) [compound 376]
Percent DMPK Reduction [1]: 0.05%
Normalized DMPK Remaining (0.5 nM oligonucleotide, qPCR): 1.00
Percent DMPK Reduction [2]: 96.23%
Normalized DMPK Remaining (50 nM oligonucleotide, qPCR): 0.04

377 (UUUCCCGAGUAAGCAGGCAG; chemistry not given here) [compound 377]
Percent DMPK Reduction (0.5 nM oligonucleotide): 20.69%
Normalized DMPK Remaining (0.5 nM oligonucleotide): 0.79
Percent DMPK Reduction (50 nM oligonucleotide): 44.89%
Normalized DMPK Remaining (50 nM oligonucleotide): 0.55

378 (GGAUGUUGUCGGGUUUGAUG; chemistry not given here) [compound 378]
Percent DMPK Reduction (0.5 nM oligonucleotide): 4.26%
Normalized DMPK Remaining (0.5 nM oligonucleotide): 0.96
Percent DMPK Reduction (50 nM oligonucleotide): 40.81%
Normalized DMPK Remaining (50 nM oligonucleotide): 0.59

379 (CAGGUAGUUCUCAUCCUGGA; chemistry not given here) [compound 379]
Percent DMPK Reduction (0.5 nM oligonucleotide): 25.92%
Normalized DMPK Remaining (0.5 nM oligonucleotide): 0.74
Percent DMPK Reduction (50 nM oligonucleotide): 76.71%
Normalized DMPK Remaining (50 nM oligonucleotide): 0.23

380 (UGCCCAUAGAACAUUUCAUA; chemistry not given here) [compound 380]
Percent DMPK Reduction (0.5 nM oligonucleotide): 7.67%
Normalized DMPK Remaining (0.5 nM oligonucleotide): 0.92
Percent DMPK Reduction (50 nM oligonucleotide): 34.56%
Normalized DMPK Remaining (50 nM oligonucleotide): 0.65

381 (UAGUUCUCAUCCUGGAAGGC; chemistry not given here) [compound 381]
Percent DMPK Reduction (0.5 nM oligonucleotide): 16.83%
Normalized DMPK Remaining (0.5 nM oligonucleotide): 0.83
Percent DMPK Reduction (50 nM oligonucleotide): 43.88%
Normalized DMPK Remaining (50 nM oligonucleotide): 0.56

382 (AUGUCCCUGUGCACGUAGCC; chemistry not given here) [compound 382]
Percent DMPK Reduction (0.5 nM oligonucleotide): 16.78%
Normalized DMPK Remaining (0.5 nM oligonucleotide): 0.83
Percent DMPK Reduction (50 nM oligonucleotide): 49.29%
Normalized DMPK Remaining (50 nM oligonucleotide): 0.51

383 (CGGGCCCGGAUCACAGGACU; chemistry not given here) [compound 383]
Percent DMPK Reduction (0.5 nM oligonucleotide): 17.45%
Normalized DMPK Remaining (0.5 nM oligonucleotide): 0.83
Percent DMPK Reduction (50 nM oligonucleotide): 67.11%
Normalized DMPK Remaining (50 nM oligonucleotide): 0.33

384 (UGGACGAUCUUGCCAUAGGU; chemistry not given here) [compound 384]
Percent DMPK Reduction (0.5 nM oligonucleotide): 19.20%
Normalized DMPK Remaining (0.5 nM oligonucleotide): 0.81
Percent DMPK Reduction (50 nM oligonucleotide): 42.52%
Normalized DMPK Remaining (50 nM oligonucleotide): 0.57

385 (GUUGGCCGGCGUGGGCCACC; chemistry not given here) [compound 385]
Percent DMPK Reduction (0.5 nM oligonucleotide): -1.82%
Normalized DMPK Remaining (0.5 nM oligonucleotide): 1.02
Percent DMPK Reduction (50 nM oligonucleotide): 43.57%
Normalized DMPK Remaining (50 nM oligonucleotide): 0.56

386 (CUCAGUGCAUCCAAAACGUG; chemistry not given here) [compound 386]
Percent DMPK Reduction (0.5 nM oligonucleotide): 7.65%
Normalized DMPK Remaining (0.5 nM oligonucleotide): 0.92
Percent DMPK Reduction (50 nM oligonucleotide): 54.26%
Normalized DMPK Remaining (50 nM oligonucleotide): 0.46

387 (UCGAAGUUGCAUGUGUCGGU; chemistry not given here) [compound 387]
Percent DMPK Reduction (0.5 nM oligonucleotide): 22.96%
Normalized DMPK Remaining (0.5 nM oligonucleotide): 0.77
Percent DMPK Reduction (50 nM oligonucleotide): 58.15%
Normalized DMPK Remaining (50 nM oligonucleotide): 0.42

388 (UGGAACACGGACGGCCCGGC; chemistry not given here) [compound 388]
Percent DMPK Reduction (0.5 nM oligonucleotide): -1.90%
Normalized DMPK Remaining (0.5 nM oligonucleotide): 1.02
Percent DMPK Reduction (50 nM oligonucleotide): 60.96%
Normalized DMPK Remaining (50 nM oligonucleotide): 0.39

389 (CCGAGAGCAGCGCAAGUGAG; chemistry not given here) [compound 389]
Percent DMPK Reduction (0.5 nM oligonucleotide): 16.13%
Normalized DMPK Remaining (0.5 nM oligonucleotide): 0.84
Percent DMPK Reduction (50 nM oligonucleotide): 40.93%
Normalized DMPK Remaining (50 nM oligonucleotide): 0.59

390 (UCCUGCAACUGCCGGACGUG; chemistry not given here) [compound 390]
Percent DMPK Reduction (0.5 nM oligonucleotide): 16.06%
Normalized DMPK Remaining (0.5 nM oligonucleotide): 0.84
Percent DMPK Reduction (50 nM oligonucleotide): 44.61%
Normalized DMPK Remaining (50 nM oligonucleotide): 0.55

Source: patent US20230144436A1, “MUSCLE TARGETING COMPLEXES AND USES THEREOF FOR TREATING MYOTONIC DYSTROPHY” (Dyne Therapeutics, Inc., priority 2020, published 2023)
